US20140329776A1, “Mitochondria-Targeted Antioxidants for Treatment of Age-Related Brain Disorders” (MITOTECH S.A., priority 2011, published 2014)

Assays:
[1] = tested on: hippocampal slice neurons; test: long-term potentiation (LTP) of hippocampal slices treated with Aβ after in vivo treatment; set-up: species or system rat
Method: FIG. 3B is a graphic representation showing the LTP caused by in vitro addition of Aβ, where the decay of LTP of hippocampal slice neurons characterized by a decrease of pop-spike amplitude (%) in a hippocampal slice treated with Aβ.
SkQR1 Aβ was added 15 min before the LTP induction with high-frequency electric stimulation (arrow). The decay of LTP (i.e. decrease of pop-spike amplitude) in a hippocampal slice treated with Aβ can be prevented by SkQR1 treatment.
FIG. 16 is a bar graph comparing the neuroprotective effects of preferred SkQ mitochondria-targeted antioxidants of the invention when administered in vivo in a model of Alzheimer disease.
As a model of cell memory, an electric response of a hippocampal slice (long-term potentiation, LTP) was used (Malenka, et al., Science 285:1870-1874 (1999)). A direct experiment was performed showing the prevention of Aβ toxicity in hippocampus by in vivo treatment of rats with 1 μmol SkQR1 per kg of body weight. The compound was injected intraperitoneally into the animal 24 hours before hippocampal slices were obtained to measure LTP. Some slices were pretreated with Aβ for 15 minutes. As is seen in FIG. 3B, Aβ impaired LTP relative to untreated control.
FIG. 16 provides a comparison of the neuroprotective effects of SkQ1, SkQR1 and C12TPP based on the LTP signal in neurons of hippocampal slices. Ab stands for beta-amyloid treatment. […] All SkQs and C12TPP were administered in vivo to rats prior the extraction of hippocampus.

[2] = tested on: chronically alcoholised rats; test: consumption of 15% ethanol solution after deprivation; body weight; type: in vivo, rat
Method: FIG. 12 is a graphic representation showing the consumption of 15% ethanol solution after deprivation in ml (*−p<0.01 on 1st day of alcoholisation SKQ-1 to negative control; #—p<0,05 for average ethanol consumption for 1-36 days SKQ-1 to negative control).
Male albino rats had free access to a 15% ethanol solution, as well as to food and water. After 6 months of alcoholisation, animals with average consumption more than 11 ml of 15% ethanol solution were divided into two even groups and subjected to the following treatment. The Negative Control group (n=16) (chronically alcoholised rats) were orally administered 1 ml per kg of isotonic 0.9% NaCl solution every two days for 20 days during alcohol deprivation. The SkQ1 group (n=17) (chronically alcoholised rats) were orally administered 1 ml per kg of SkQ1 250 nM solution every two days for 20 days during alcohol deprivation. The Intact Control group (n=10) (animals had no previous contact with ethanol) were orally administered 1 ml per kg of normal physiological solution every two days for 20 days.
After behavioral testing, ethanol consumption of 15% solution was measured for 45 days. The level of ethanol consumption during first day in the SkQ1 group was lower (p<0.01) than in the Negative Control group. The decreased ethanol consumption during first day indicates lower level of ethanol craving after SkQ1 administration. […]

Wistar rats = test: open field test 4 hours after ethanol narcosis; type: in vivo, rat; conditions: SkQ1 250 nM orally after ethanol narcosis; vs negative control, p<0.05
Method: FIG. 5 is a schematic representation of the behavior parameters in the open field test 4 hours after ethanol narcosis of all groups in % to intact control. (*−p<0.05 for SKQ-1 250 nM compared to negative control);
In these experiments, 6 groups of experimental animals (Wistar rats) were used. (1) The Intact Control group (n=12), had no ethanol narcosis, and were orally administered a normal isotonic 0.9% NaCl solution; (2) the Negative Control group (n=12) was orally administered a normal physiological solution after ethanol narcosis; (3) The SkQ1 50 nM control group (n=12) was orally administered SkQ1 in a concentration 50 nM after ethanol narcosis; (4) The SkQ1 250 nM control group (n=12) was orally administered SkQ1 in a concentration of 250 nM after ethanol narcosis; (5) The SkQ1 1250 nM control group (n=12) was orally administered SkQ1 in a concentration of 1250 nM after ethanol narcosis; (6) the SkQ1 1250 nM intr control group (n=13) was intraperitoneally administered SkQ1 in a concentration of 1250 nM after ethanol narcosis.
In the Negative Control group ethanol intoxication caused a decrease of locomotor activity compared to Intact Control group: decreased track length (p<0.05), movement time (p<0.05), mean speed (p<0.05) and increased immobilization time (p<0.05) (FIG. 4). […]

CC1=C(C)C(=O)C(CCCCCCCCCC[P+](c2ccccc2)(c2ccccc2)c2ccccc2)=CC1=O [SkQ1, plastoquinonyl decyltriphenyl-phosphonium]
neuroprotective activity based on LTP signal, model of Alzheimer disease ([1]; administered in vivo to rats prior to extraction of hippocampus, beta-amyloid treatment, FIG. 16): neuroprotective activity
impairment (decay) of LTP caused by Aβ ([1]; in vivo treatment (SkQR1 1 μmol/kg i.p. 24 hours before slices), Aβ added to slices for 15 min): prevents decay
average ethanol consumption during the next month, lower than Negative Control ([2]; p<0.05): ~2 ×
level of ethanol consumption during first day ([2]; vs Negative Control, p<0.01): lower
immobilization time (Wistar rats): decreasing
track length (Wistar rats): increasing
